Tests used:
[1] = target: T1, PRMT1 (Homo sapiens, UniProt Q99873); assay: PRMT1 biochemical assay (3H-SAM Flashplate, histone H4 peptide substrate); conditions: GST-tagged full-length human PRMT1 0.5 nM, 30 min preincubation, peptide 20 nM
T1 construct: GST-tagged PRMT1; made in house; host or cells: High Five insect cells (baculovirus, pFastBacI)
Text: S-adenosylmethionine (SAM), S-adenosylhomocysteine (SAH), bicine, Tween20, dimethylsulfoxide (DMSO), bovine skin gelatin (BSG), and Tris(2-carboxyethyl)phosphine hydrochloride solution (TCEP) were purchased from Sigma-Aldrich at the highest level of purity possible. ^3H-SAM was purchase from American Radiolabeled Chemicals with a specific activity of 80 Ci/mmol. 384-well streptavidin Flashplates were purchased from PerkinElmer.
Peptide representative of human histone H4 residues 36-50 was synthesized with an N-terminal linker-affinity tag motif and a C-terminal amide cap by 21st Century Biochemicals. The peptide was purified by high-performance liquid chromatography (HPLC) to greater than 95% purity and confirmed by liquid chromatography mass spectrometry (LC-MS). The sequence was Biot-Ahx-RLARRGGVKRISGLI-amide (SEQ ID NO.: 1).
Full-length human PRMT1 isoform 1 (NM_001536.5) transcript clone was amplified from an HEK 293 cDNA library, incorporating flanking 5′ sequence encoding a FLAG tag (DYKDDDDK) (SEQ ID NO.:2) fused directly to Met 1 of PRMT1. The amplified gene was subcloned into pFastBacI (Life Technologies) modified to encode an N-terminal GST tag and a TEV cleavage sequence ([…] […] […] […]) (SEQ ID NO.:3) fused to Asp of the Flag tag of PRMT1.
Recombinant baculovirus were generated according to Bac-to-Bac kit instructions (Life Technologies). Protein over-expression was accomplished by infecting exponentially growing High Five insect cell culture at 1.5×10^6 cell/ml with 1:100 ratio of virus. Infections were carried out at 27° C. for 48 hours, harvested by centrifugation, and stored at −80° C. for purification. […]

[2] = tested on: mono-methyl arginine in RKO cells; assay: RKO methylation assay (In Cell Western for mono-methyl arginine and DNA content); assay type: cell-based; conditions: 72 hours, percent activation of mono-methyl arginine signal normalised to DNA content
Text: RKO adherent cells were purchased from ATCC (American Type Culture Collection), Manassas, Va., USA. DMEM/Glutamax medium, penicillin-streptomycin, heat inactivated fetal bovine serum, 0.05% trypsin and D-PBS were purchased from Life Technologies, Grand Island, N.Y., USA. Odyssey blocking buffer, 800CW goat anti-rabbit IgG (H+L) antibody, and Licor Odyssey infrared scanner were purchased from Licor Biosciences, Lincoln, Nebr., USA. Mono-methyl arginine antibody was purchased from Cell Signaling Technology, Danvers, Mass., USA.
Methanol was purchased from VWR, Franklin, Mass., USA. 10% Tween 20 was purchased from KPL, Inc., Gaithersburg, Md., USA. DRAQ5 was purchased from Biostatus Limited, Leicestershire, UK. […]
First, the ratio for each well was determined by:
Each plate included fourteen control wells of DMSO only treatment (minimum activation) as well as fourteen control wells for maximum activation treated with 20 μM of a reference compound. The average of the ratio values for each control type was calculated and used to determine the percent activation for each test well in the plate. […] Percent activation was determined and EC30 curves were generated using triplicate wells per concentration of compound.

T1 sequence (Q99873 with tags, fused parts or gaps): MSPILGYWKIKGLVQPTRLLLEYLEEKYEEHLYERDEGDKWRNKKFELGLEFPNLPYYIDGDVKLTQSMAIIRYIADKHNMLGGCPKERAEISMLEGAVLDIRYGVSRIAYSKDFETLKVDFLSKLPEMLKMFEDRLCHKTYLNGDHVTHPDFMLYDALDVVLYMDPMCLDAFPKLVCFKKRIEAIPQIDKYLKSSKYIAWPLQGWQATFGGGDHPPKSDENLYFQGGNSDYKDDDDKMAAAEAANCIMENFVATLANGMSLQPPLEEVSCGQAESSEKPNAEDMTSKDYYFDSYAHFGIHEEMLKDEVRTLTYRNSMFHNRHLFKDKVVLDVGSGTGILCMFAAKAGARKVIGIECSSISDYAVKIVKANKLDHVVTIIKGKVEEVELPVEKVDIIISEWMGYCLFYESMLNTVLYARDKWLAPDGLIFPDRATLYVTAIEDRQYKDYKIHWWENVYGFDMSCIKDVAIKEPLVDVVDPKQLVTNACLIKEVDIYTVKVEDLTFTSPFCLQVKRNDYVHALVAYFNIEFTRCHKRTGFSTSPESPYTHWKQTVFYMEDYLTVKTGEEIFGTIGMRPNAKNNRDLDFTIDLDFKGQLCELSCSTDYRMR

| Molecule | IC50 [1] | In Cell Western EC30 [2] |
| --- | --- | --- |
| 3-methyl-N-(3-(4-((methyl (2-(methylamino)ethyl)amino)methyl)-1H-pyrazol-3-yl)phenyl)but-2-enamide [Compound 3] | 0.101 to 1 µM |  |
| C=C(C)C(=O)Nc1ccc(-c2[nH]ncc2CN(C)CCNC)cc1 [Compound 1, N-(4-(4-((methyl(2-(methylamino)ethyl)amino)methyl)-1H-pyrazol-3-yl)phenyl)methacrylamide] | < 0.1 µM | B (“B” indicates an EC30 of 3.01-12.00 μM) |
| C=CC(=O)Nc1ccc(-c2[nH]ncc2CN(C)CCNC)cc1 [Compound 2, N-(4-(4-((methyl(2-(methylamino)ethyl)amino)methyl)-1H-pyrazol-3-yl)phenyl)acrylamide] | 0.101 to 1 µM | C (“C” indicates an EC30 ≧ 12.01 μM) |

— patent US9475776B2, “PRMT1 inhibitors and uses thereof” (Epizyme, Inc., priority 2013, dated 2016)
